Literature values as cited in patent US5929038A, “Pharmaceutical preparations which inhibit hepatitis B virus (HBV) replication” (Choongwae Pharmaceutical Co., Ltd., priority 1992, dated 1999).

Test system: hepatitis B (HBV infection)
Conditions: cited from earlier work

**Q.** Which “suppression of HBV infection” value (clinical use) does the source give for `Nc1ncnc2c1ncn2[C@@H]1O[C@H](COP(=O)(O)O)[C@@H](O)[C@@H]1O` [ara-AMP, reference compound] here?
**A.** transiently suppress HBV infection

**Q.** What about the toxicities (in vivo) of the same compound?
**A.** often serious toxicities
